Some results are limits rather than exact numbers.

One may read the IC50 as the concentration at which inhibition is half-maximal. Read a high IC50 as weaker potency in that assay.

The subject of the first experiment is A549 cells. Nature of the experiment: in vitro antiproliferation assay, A549 (lung). Type of experiment: cell-based. The note with it: A549 (lung) cells, antiproliferation. The procedure:
The IC50 values of various compounds against a various different tumor cell lines were determined using standard in vitro antiproliferation assays. The tumor cell lines tested were as follows: A549 (lung); H1299 (lung), ACHN (kidney/p53 wt), CAKI (renal cell carcinoma), NCI-H460 (lung); HCT116 (colon/p53w0; HELA (cervix/p53 wt), HUH7 (liver/p53 wt), HUVEC (primary endothelial), LNCAP (prostate), HT-29 (colon); MCF-7 (breast); MCF-7 (breast/ER positive), MDA MB435S (breast); MDA MB231 (breast/ER negative), DU145 (prostate); BxPC-3 (pancreatic); SKOV-3 (ovarian); HepG2 (hepatic), NDHF primary normal human dermal fibroblast), SKMEL28 (breast/p53mut), SKMEL5 (breast/p53 wt), U20S (bone) and PC3 (prostate). […] A blank indicates the specified compound was not tested against the specified cell line.
For the compound `OCCOc1ccc(Nc2ncc(F)c(Nc3cccc(O)c3)n2)cc1` [compound 934], the IC50 was at most 20 µM.

`CC(C)c1ccc(Nc2nc(Nc3cccc(OCCO)c3)ncc2F)cc1` [compound 935] displayed an IC50 of over 20 µM. Same read-out and setting: then `COC(=O)COc1ccc(Nc2ncc(F)c(Nc3ccc(C(C)C)cc3)n2)cc1` [compound 936], with over 20 µM; and `CC(C)c1ccc(Nc2nc(Nc3ccc(OCCO)cc3)ncc2F)cc1` [compound 937], with at most 20 µM; and `OCCOc1cccc(Nc2nc(Nc3cccc(O)c3)ncc2F)c1` [compound 939], with over 20 µM.

The experiment is the same for the next values; noted with them: A549 (lung) cells, in vitro antiproliferation.
The compound `CN(C)CCOc1ccc(Nc2ncc(F)c(Nc3cccc(O)c3)n2)cc1` [compound 693] returned an IC50 of at most 20 µM. Still for that read-out and setting: then `Fc1cc(Nc2ncc(F)c(Nc3ccc(C(F)(F)F)c(F)c3)n2)ccc1C(F)(F)F` [compound 703], with over 20 µM. Same read-out and setting: then `Fc1cnc(Nc2cccc(OC(F)(F)F)c2)nc1Nc1cccc(OC(F)(F)F)c1` [compound 705], with over 20 µM; and `Fc1cnc(Nc2ccc(Cl)c(C(F)(F)F)c2)nc1Nc1ccc(Cl)c(C(F)(F)F)c1` [compound 706], with over 20 µM; and `CCOc1cccc(Nc2ncc(F)c(Nc3cccc(OCC)c3)n2)c1` [compound 707], with at most 20 µM. Same read-out and setting: then `COc1cccc(Nc2ncc(F)c(Nc3cccc(OC)c3)n2)c1` [compound 708], with at most 20 µM; and `CCOc1ccc(Nc2nc(Nc3ccc(OC)c(OC)c3)ncc2F)cc1` [compound 709], with over 20 µM.

As for `Oc1cccc(Nc2ncc(F)c(Nc3cccc(O)c3)n2)c1` [compound 711], the IC50 was at most 20 µM. Same read-out and setting: then `COc1ccc(Nc2ncc(F)c(Nc3cccc(O)c3)n2)cc1OC` [compound 712], with over 20 µM; and `CCOc1ccc(Nc2nc(Nc3cccc(O)c3)ncc2F)cc1` [compound 714], with over 20 µM. Consider `COc1ccc(Nc2nc(Nc3cccc(O)c3)ncc2F)cc1OC` [compound 715], for which the IC50 is at most 20 µM.

`Fc1cnc(Nc2ccc(Cl)cc2)nc1Nc1ccc(Cl)cc1` [compound 716] showed an IC50 of over 20 µM.

The compound `CCc1ccc(Nc2ncc(F)c(Nc3ccc(CC)cc3)n2)cc1` [compound 722] had an IC50 of over 20 µM. `COC(=O)COc1ccc(Nc2ncc(F)c(Nc3ccc(OCC(=O)OC)cc3)n2)cc1` [compound 723]: the IC50 is at most 20 µM. The same measure, in the same setting: then `COc1ccc(Nc2ncc(F)c(Nc3ccc(OC)c(O)c3)n2)cc1O` [compound 725], with at most 20 µM; and `CCOC(=O)COc1ccc(Nc2ncc(F)c(Nc3cccc(O)c3)n2)cc1` [compound 729], with over 20 µM; and `Oc1ccc(Nc2ncc(F)c(Nc3ccc(O)cc3)n2)cc1` [compound 730], with at most 20 µM.

`Cc1cc(Nc2ncc(F)c(Nc3ccc(O)c(C)c3)n2)ccc1O` [compound 731]: the IC50 is over 20 µM. The same measure, in the same setting: next, `O=C(O)COc1ccc(Nc2ncc(F)c(Nc3ccc(OCC(=O)O)cc3)n2)cc1` [compound 733]: over 20 µM; `CNC(=O)COc1ccc(Nc2ncc(F)c(Nc3ccc(OCC(=O)O)cc3)n2)cc1` [compound 734]: over 20 µM; `O=C(O)COc1ccc(Nc2ncc(F)c(Nc3cccc(Cl)c3)n2)cc1` [compound 736]: over 20 µM. On to `CCOC(=O)COc1ccc(Nc2ncc(F)c(Nc3ccc(OCC(=O)OCC)cc3)n2)cc1` [compound 737], for which the IC50 was over 20 µM. The same measure, in the same setting: then `COC(=O)COc1ccc(Nc2ncc(F)c(Nc3ccc(OCC(=O)OC(C)(C)C)cc3)n2)cc1` [compound 738], with over 20 µM.

`CC(C)(C)OC(=O)COc1ccc(Nc2ncc(F)c(Nc3ccc(OCC(=O)OC(C)(C)C)cc3)n2)cc1` [compound 739] registered an IC50 of over 20 µM. On the same count and under the same terms, then `COc1cc(Nc2ncc(F)c(Nc3cc(OC)c(OC)c(OC)c3)n2)cc(OC)c1OC` [compound 743], with over 20 µM. Same read-out and setting: next, `Oc1cccc(Nc2nc(Nc3ccc(OCCN4CCOCC4)cc3)ncc2F)c1` [compound 744]: at most 20 µM; `CC(C)Oc1ccc(Nc2ncc(F)c(Nc3ccc(OC(C)C)cc3)n2)cc1` [compound 745]: over 20 µM. As for `COc1cc(Nc2ncc(F)c(Nc3cccc(O)c3)n2)cc(OC)c1OC` [compound 760], the IC50 was over 20 µM.

As for `CNC(=O)COc1cccc(Nc2ncc(F)c(Nc3cccc(C(F)(F)F)c3)n2)c1` [compound 770], the IC50 was at most 20 µM.

As for `CNC(=O)COc1cccc(Nc2nc(Nc3cc(OC)cc(OC)c3)ncc2F)c1` [compound 771], the IC50 is at most 20 µM. Turning to `CNC(=O)COc1cccc(Nc2ncc(F)c(Nc3ccc(OC)c(Cl)c3)n2)c1` [compound 788], the IC50 is at most 20 µM.

The same experiment, now with this note: Homo sapiens; IC50 class against A549 (lung) tumor cells.
`CC(C)(C)c1cc(Nc2nc(Nc3cccc(N4CCOCC4)c3)ncc2F)n[nH]1` [compound 199] had an IC50 of at most 20 µM.

Still in this experiment, the particulars now being: Table 5; in vitro antiproliferation, A549 (lung) cells.
Consider `O=C(COc1ccc(Nc2ncc(F)c(Nc3ccc4c(c3)OCCO4)n2)cc1)NCCO` [compound 474], for which the IC50 was over 20 µM. Still for that read-out and setting: then `CCCCCCOc1ccc(Nc2ncc(F)c(Nc3ccc4c(c3)OCCO4)n2)cc1` [compound 477], with over 20 µM; and `CCOc1ccc(Nc2ncc(F)c(Nc3ccc4c(c3)OCCO4)n2)cc1` [compound 478], with at most 20 µM. Same read-out and setting: next, `CCCCOc1ccc(Nc2ncc(F)c(Nc3ccc4c(c3)OCCO4)n2)cc1` [compound 479]: over 20 µM. Consider `CCOC(=O)COc1ccc(Nc2ncc(F)c(Nc3ccc4c(c3)OCCO4)n2)cc1` [compound 480], for which the IC50 was over 20 µM. The same measure, in the same setting: then `CN(C)C(=O)COc1cccc(Nc2ncc(F)c(Nc3ccc4c(c3)OCCO4)n2)c1` [compound 481], with over 20 µM. The compound `Oc1cccc(Nc2ncc(F)c(Nc3ccc4c(c3)OCCO4)n2)c1` [compound 482] displayed an IC50 of over 20 µM.

`Fc1ccc(Nc2ncc(F)c(Nc3ccc4c(c3)OCCO4)n2)cc1Cl` [compound 485] displayed a half-inhibitory concentration (IC50) of over 20 µM. Compound `Fc1ccc(Nc2ncc(F)c(Nc3ccc4c(c3)OCCO4)n2)cc1` [compound 487] returned an IC50 of over 20 µM.

`CCc1ccc(Nc2ncc(F)c(Nc3ccc4c(c3)OCCO4)n2)cc1` [compound 489] returned an IC50 of over 20 µM.

As for `O=C(O)COc1ccc(Nc2ncc(F)c(Nc3ccc4c(c3)OCCO4)n2)cc1` [compound 490], the IC50 was over 20 µM. On the same count and under the same terms, then `CC(=O)COc1cccc(Nc2ncc(F)c(Nc3ccc4c(c3)OCCO4)n2)c1` [compound 492], with over 20 µM. The same measure, in the same setting: next, `CNCCOc1cccc(Nc2ncc(F)c(Nc3ccc4c(c3)OCCO4)n2)c1` [compound 498]: over 20 µM; `Fc1cnc(Nc2cccc(C(F)(F)F)c2)nc1Nc1ccc2c(c1)OCCO2` [compound 514]: over 20 µM.

For the compound `O=C(COc1cccc(Nc2ncc(F)c(Nc3ccc4c(c3)OCCO4)n2)c1)NC1CC1` [compound 520], the IC50 was at most 20 µM.

For `OCCOc1cccc(Nc2ncc(F)c(Nc3ccc4c(c3)OCCO4)n2)c1` [compound 576], the IC50 is at most 20 µM.

`COC(=O)COc1cccc(Nc2ncc(F)c(Nc3ccc4c(c3)OCCO4)n2)c1` [compound 586] returned an IC50 of over 20 µM.

`OCCOc1ccc(Nc2ncc(F)c(Nc3ccc4c(c3)OCCO4)n2)cc1` [compound 587] had an IC50 of at most 20 µM.

Still in this experiment, the particulars now being: Table 7; in vitro antiproliferation, A549 (lung) cells.
`CCOC(=O)c1cc2cc(Nc3ncc(F)c(Nc4ccc(C(C)(C)C)cc4)n3)ccc2[nH]1` [compound 617] showed an IC50 of over 20 µM. Same read-out and setting: next, `CCOC(=O)c1cc2cc(Nc3ncc(F)c(Nc4ccc5c(c4)OCCO5)n3)ccc2[nH]1` [compound 618]: at most 20 µM; `COC(=O)c1cc2cc(Nc3ncc(F)c(Nc4ccc(C(C)(C)C)cc4)n3)ccc2o1` [compound 619]: over 20 µM; `O=C(O)c1cc2cc(Nc3ncc(F)c(Nc4cccc(O)c4)n3)ccc2[nH]1` [compound 621]: over 20 µM. In turn, `CC(C)(C)c1ccc(Nc2nc(Nc3ccc4oc(C(=O)O)cc4c3)ncc2F)cc1` [compound 622] registered an IC50 of over 20 µM. The compound `COC(=O)c1cc2cc(Nc3ncc(F)c(Nc4cccc(OC(C)C)c4)n3)ccc2o1` [compound 623] came in with an IC50 of over 20 µM.

`O=C(c1cc2cc(Nc3ncc(F)c(Nc4cccc(O)c4)n3)ccc2o1)N1CCOCC1` [compound 624]: the IC50 is over 20 µM.

`CNC(=O)c1cc2cc(Nc3ncc(F)c(Nc4cccc(O)c4)n3)ccc2o1` [compound 627]: the IC50 is over 20 µM. Same read-out and setting: next, `CNC(=O)c1cc2cc(Nc3ncc(F)c(Nc4ccc(C(C)(C)C)cc4)n3)ccc2o1` [compound 628]: over 20 µM. Still for that read-out and setting: then `O=C(NCCO)c1cc2cc(Nc3ncc(F)c(Nc4cccc(O)c4)n3)ccc2o1` [compound 630], with over 20 µM; and `COC(=O)c1cc2cc(Nc3ncc(F)c(Nc4ccc5c(c4)OCCO5)n3)ccc2o1` [compound 638], with over 20 µM. On to `O=C(O)c1cc2cc(Nc3ncc(F)c(Nc4ccc5c(c4)OCCO5)n3)ccc2o1` [compound 639], for which the IC50 is over 20 µM. On the same count and under the same terms, next, `CC(C)Oc1ccc(Nc2nc(Nc3ccc4oc(C(=O)N5CCCC5)cc4c3)ncc2F)cc1` [compound 640]: over 20 µM; `COC(=O)c1cc2cc(Nc3ncc(F)c(Nc4ccc(OC(C)C)cc4)n3)ccc2o1` [compound 641]: over 20 µM.

As for `CNC(=O)c1cc2cc(Nc3ncc(F)c(Nc4cccc(C(C)(C)C)c4)n3)ccc2o1` [compound 675], the IC50 was over 20 µM.

The experiment is the same for the next values; noted with them: in vitro antiproliferation, A549 (lung) cells; Table 4; compounds with no designated stereochemistry tested as racemate.
For `CC1(C)Oc2ccc(Nc3nc(Nc4cc(Cl)cc(Cl)c4)ncc3F)cc2NC1=O` [compound 308], the IC50 is at most 20 µM.

Values taken from patent US8809341B2, “2,4-pyrimidinediamine compounds and uses as anti-proliferative agents” (Rigel Pharmaceuticals, Inc., priority 2003, dated 2014).
